Results on 34 compounds are retold here after patent publication US5093370A, “Quaternary ammonium compounds having muscle relaxation activity” (priority 1989, dated 1992).

Assay [1] relates to neuromuscular preparations (hemiinterseptum neuromuscule). As to the kind of experiment: Muscle relaxation action under a diabetic condition (neuromuscular preparations from alloxan-treated mice). Format: cell-based. The settings on record: Mus musculus; alloxan diabetic ddY mice 8 to 11 weeks old, blood glucose 310 to 460 mg/dl; parentheses: 90% reliance. How it is done: (§1) To prepare neuromuscular preparations ddY mice 6 to 10 weeks old weighing 27.0 to 42.0 g were decapitated, venesected, and the hemiinterseptum neuromuscule was removed. This preparation was suspended by applying 1 gram of a strain in Krebs-Henseleit's solution at 36 ±1° C., through which a mixed gas of carbon dioxide/oxygen (5:95) was passed, an electric shock (0.4 to 0.5V, 0.2 Hz, […].) was applied to the nerve by platinum electrodes, and the resulting short contraction reaction was detected by an isometric transducer (Nippon Koden Sha, Japan) and recorded by a biophysiograph system (San-Ei, Japan). An average of 12 contraction height data obtained one minute prior to the administration of a test compound was used as a control. The test compound was accumulatively administered at two minute intervals, and the contraction height two minutes after each administration was compared with the control, to calculate the percentage of inhibition. To ensure the reliability of the tests, usually four measurements were used for each administration.
Muscle relaxation action under a diabetic condition IC50
Alloxan monohydrate (Nakarai Kagaku, Japan) was administered to the tail vein of ddY mice 4 to 5 weeks old, in a dose of 85 mg/kg, and the blood glucose level was monitored starting at the 28th day, by a glucose analyzer from the administration of alloxan (Bechmann Type II). Mice 8 to 11 weeks old and weighing 19.0 to 36.0 g, and having a blood glucose level of 310 to 460 mg/dl, were chosen and used to prepare neuromuscular preparations as described above.

The test system is the same in assay [2]. Nature of the assay: Muscle relaxation action: inhibition of nerve-evoked contraction of mouse neuromuscular preparation. The format is cell-based, ddY mice. The settings on record: read-out: Muscle relaxation action IC50 (90% reliance). How it is done: Muscle relaxation action IC50)
as §1, with “administration. The IC50 value was obtained on a line linearized by the method of least […] from a scope from a 10 to 60% inhibition in a log dose-inhibition curve.” for “administration.”

Where [3] appears, read: ddY mice 6 to 10 weeks old, Krebs-Henseleit's solution, 36 ±1° C., contraction height two minutes after each cumulative administration, parentheses: 90% reliance.

As usually defined, the IC50 is the concentration at which inhibition is half-maximal. With `C[N+](C)(C)CCCCCCCCCC[N+](C)(C)C` [Decamethonium, reference compound], the IC50 in assay [1] worked out at 131 µM; in assay [2] (setting [3]) it was 101 µM.
As for `C[N+](C)(C)CCCCc1ccc(CCCC[N+](C)(C)C)cc1` [Example 1, 1,4-Bis(4-trimethylammoniobutyl)benzene diiodide], the figures for the IC50 in assay [1] and in assay [2] were 25.9 µM and 22.8 µM, respectively.
Taken in the same sequence, the figures for `C[N+](C)(C)CCCC(=O)c1ccc(C(=O)CCC[N+](C)(C)C)cc1` [Example 2, 1,4-Bis(4-trimethylammoniobutyryl)benzene diiodide] were 32.7 µM and 26 µM.
Consider `C[N+](C)(C)CCCC(O)c1ccc(C(O)CCC[N+](C)(C)C)cc1` (stereo not shown) [Example 3, 1,4-Bis(1-hydroxy-4-trimethylammoniobutyl)benzene diiodide], for which the IC50 in assay [2] (setting [3]) came out at 209 µM.
For the compound `CC(=O)OC(CCC[N+](C)(C)C)c1ccc(C(CCC[N+](C)(C)C)OC(C)=O)cc1` (stereo not shown) [Example 4, 1,4-Bis(1-acetoxy-4-trimethylammoniobutyl)benzene diiodide], the IC50 in assay [2] was determined as 450 µM.
Regarding `CC[N+](CC)(CC)CCCc1ccc(CCC[N+](CC)(CC)CC)cc1` [Example 6, 1,4-Bis(3-triethylammoniopropyl)benzene diiodide], in assay [2] (setting [3]), the IC50 came to 176 µM.
Turning to `C[N+]1(CCCc2ccc(CCC[N+]3(C)CCCCC3)cc2)CCCCC1` [Example 7, 1,4-Bis3-(1-methyl-1-piperidinio)propyl]benzene dibromide], in assay [2], the IC50 worked out at 119 µM.
On to `c1cc[n+](CCCc2ccc(CCC[n+]3ccccc3)cc2)cc1` [Example 8, 1,4-Bis[3-(1-pyridinio)propyl]benzene dibromide], for which the IC50 in assay [2] (setting [3]) turned out to be 207 µM.
Take `CC[N+](CC)(CC)CCCCCc1ccc(CCCCC[N+](CC)(CC)CC)cc1` [Example 10, 1,4-Bis(5-triethylammoniopentyl)benzene diiodide]: in assay [2] (setting [3]), the IC50 came out at 11.2 µM.
Same read-out and setting: in the case of `C[N+]1(CCCCCc2ccc(CCCCC[N+]3(C)CCCCC3)cc2)CCCCC1` [Example 11] it was 60.7 µM.
Consider `C[N+](C)(C)CCOCc1ccc(COCC[N+](C)(C)C)cc1` [Example 12, 1,4-Bis(2-trimethylammonioethoxymethyl)benzene diiodide], for which, in assay [2], the IC50 was 750 µM.
As to `C[N+](C)(C)CC(CCCc1ccc(CCCC(C[N+](C)(C)C)C[N+](C)(C)C)cc1)C[N+](C)(C)C` [Example 13], in assay [2] (setting [3]), the IC50 is 1440 µM.
On the same count and under the same terms, then `C[N+](C)(C)CCCCCCCCc1ccccc1` [Example 15, N,N,N-Trimethyl-8-phenyloctylammonium p-tosylate], with 252 µM.
As to `C[N+](C)(C)CCCCc1cccc(CCCC[N+](C)(C)C)c1` [Example 16, 1,3-Bis(4-trimethylammoniobutyl)benzene diiodide], the IC50 in assay [2] is 531 µM.
Still for that read-out and setting: then `C[N+](C)(C)CCCCc1ccccc1CCCC[N+](C)(C)C` [Example 17, 1,2-Bis(4-trimethylammoniobutyl)benzene diiodide], with 59.7 µM.
For `CC[N+](CC)(CC)CCCCc1ccc(CCCC[N+](CC)(CC)CC)cc1` [Example 18, 1,4-Bis(triethylammoniobutyl)benzene diiodide], the 50% inhibitory concentration (IC50) in assay [1] was determined as 51.1 µM; in assay [2] (setting [3]), 52.4 µM.
For the compound `C[N+]1(CCCCc2ccc(CCCC[N+]3(C)CCCCC3)cc2)CCCCC1` [Example 19, 1,4-Bis[4-(1-methyl-1-piperidinio)butyl]benzene dibromide], the IC50 in assay [2] (setting [3]) was found to be 95.9 µM.
Take `C[N+](C)(C)CCCCCCc1ccc(CCCCCC[N+](C)(C)C)cc1` [Example 20, 1,4-Bis(6-trimethylammoniohexyl)benzene diiodide]: the results for the IC50 in assay [1] and in assay [2] were 21.7 µM and 15.9 µM, respectively.
With `CC[N+](CC)(CC)CCCCCCc1ccc(CCCCCC[N+](CC)(CC)CC)cc1` [Example 21, 1,4-Bis(6-triethylammoniohexyl)benzene diiodide], the IC50 turned out to be 7.66 µM in assay [1] and 6.81 µM in assay [2] (setting [3]).
On the same counts, the results for `C[N+]1(CCCCCCc2ccc(CCCCCC[N+]3(C)CCCCC3)cc2)CCCCC1` [Example 22, 1,4-Bis[6-(1-methyl-1-piperidinio)hexyl]benzene dibromide] are 21.8 µM and 17.3 µM.
`C[N+](C)(C)CCCCc1ccc(CCCC[N+](C)(C)C)c([N+](=O)[O-])c1` [Example 23, 1,4-Bis(4-trimethylammoniobutyl)-2-nitrobenzene diiodide]: the IC50 in assay [1] is 11.9 µM; in assay [2] it was 12.7 µM.
Regarding `C[N+](C)(C)CCC#Cc1ccc(C#CCC[N+](C)(C)C)cc1` [Example 25, 1,4-Bis(4-trimethylammonio-1-butynyl)benzene diiodide], the IC50 in assay [2] is 110 µM.
Regarding `CC[N+](CC)(CC)CCCCCCc1ccc(CCCCCC[N+](CC)(CC)CC)c([N+](=O)[O-])c1` [Example 26, 1,4-Bis(6-triethylammoniohexyl)-2-nitrobenzene diiodide], the IC50 in assay [2] (setting [3]) worked out at 4.52 µM.
Same read-out and setting: then `CC[N+](CC)(CC)CCCCCCCc1ccc(CCCCCCC[N+](CC)(CC)CC)cc1` [Example 27, 1,4-Bis(7-triethylammonioheptyl)benzene diiodide], with 5.96 µM; and `C[N+](C)(C)CCCSc1ccc(SCCC[N+](C)(C)C)cc1` [Example 28, 1,4-Bis(3-trimethylammoniopropylthio)benzene diiodide], with 3.89 µM.
Same read-out and setting: then `C[N+](C)(C)CCC[S+]([O-])c1ccc([S+]([O-])CCC[N+](C)(C)C)cc1` (stereo not shown) [Example 29, 1,4-Bis(3-trimethylammoniopropylsulfinyl)benzene diiodide], with 5.46 µM.
The same measure, in the same setting: then `C[N+](C)(C)CCCS(=O)(=O)c1ccc(S(=O)(=O)CCC[N+](C)(C)C)cc1` [Example 30, 1,4-Bis(3-trimethylammoniopropylsulfonyl)benzene diiodide], with 9.44 µM; and `C[N+](C)(C)CCCc1ccc2cc(CCC[N+](C)(C)C)ccc2c1` [Example 31, 2,6-Bis(3-trimethylammoniopropyl)naphthalene diiodide], with 186 µM.
Turning to `CC[N+](CC)(CC)CCCc1ccc2cc(CCC[N+](CC)(CC)CC)ccc2c1` [Example 32, 2,6-Bis(3-triethylammoniopropyl)naphthalene diiodide], the half-maximal inhibitory concentration (IC50) in assay [2] (setting [3]) was 79.1 µM.
The same measure, in the same setting: in the case of `CC[N+](CC)(CC)CCCCCSc1ccc(SCCCCC[N+](CC)(CC)CC)cc1` [Example 33, 1,4-Bis(5-triethylammoniopentylthio)benzene diiodide] it was 1.5 µM.
As for `C[N+](C)(C)CCCc1ccc(-c2ccc(CCC[N+](C)(C)C)cc2)cc1` [Example 34, 4,4'-Bis(3-trimethylammoniopropyl)biphenyl diiodide], in assay [2], the IC50 came to 132 µM.
Consider `CC[N+](CC)(CC)CCCc1ccc(-c2ccc(CCC[N+](CC)(CC)CC)cc2)cc1` [Example 35, 4,4'-Bis(3-triethylammoniopropyl)biphenyl diiodide], for which, in assay [2] (setting [3]), the IC50 was found to be 24.9 µM.
Same read-out and setting: then `CC[N+](CC)(CC)CCCCCCCCc1ccc(CCCCCCCC[N+](CC)(CC)CC)cc1` [Example 36, 1,4-Bis(8-triethylammoniooctyl)benzene diiodide], with 114 µM.
In the case of `C[N+](C)(C)CCOC(=O)CCC(=O)OCC[N+](C)(C)C` [Succinylcholine, reference compound], the IC50 turned out to be 19.3 µM in assay [1] and 25.2 µM in assay [2] (setting [3]).
